Key:
[1] = molecular target: T1, MAGL (Mus musculus (Mouse), UniProt O35678); assay: In vitro competitive activity-based protein profiling (mouse brain membrane fraction or cell lysates), MAGL band; assay type: biochemical; settings: mouse proteome; for inhibition at 1 µM: read-out: MAGL % Inh 1 μM (mouse); for IC50: competitive ABPP
Description: In Vitro Competitive Activity-Based Protein Profiling.
Proteomes (mouse brain membrane fraction or cell lysates) (50 μL, 1.0 mg/mL total protein concentration) were preincubated with varying concentrations of inhibitors at 37° C. After 30 min, FP—Rh (1.0 μL, 50 μM in DMSO) was added and the mixture was incubated for another 30 min at 37° C. Reactions were quenched with SDS loading buffer (50 μL-4×) and run on SDS-PAGE.

[2] = molecular target: T2, ABHD6 (Mus musculus (Mouse), UniProt Q8R2Y0); assay: In vitro competitive activity-based protein profiling (mouse brain membrane fraction or cell lysates), ABHD6 band; assay type: biochemical; settings: mouse proteome; for inhibition at 1 µM: read-out: ABHD6 % Inh 1 μM (mouse); for IC50: competitive ABPP
Method in brief: (§1)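 Residual hydrolase activity was measured as gel band fluorescence after FP-Rh labelling (30 min, 37° C) of proteomes pretreated 30 min at 37° C with inhibitor.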

[3] = molecular target: T3, FAAH (Mus musculus (Mouse), UniProt O08914); assay: In vitro competitive activity-based protein profiling (mouse brain membrane fraction or cell lysates), FAAH band; assay type: biochemical; settings: mouse proteome; for inhibition at 1 µM: read-out: FAAH % Inh 1 μM (mouse); for IC50: competitive ABPP
Method in brief: as §1

[4] = molecular target: T1, MAGL; assay: Mouse brain proteomes from inhibitor treated mice (oral gavage, sacrificed 4 h after administration, ABPP analysis); assay type: in vivo, mouse (C57Bl/6J); settings: 5 mg/kg oral gavage
Description: (§2) Preparation of Mouse Brain Proteomes from Inhibitor Treated Mice.
(§3) Inhibitors were administered to wild-type C57Bl/6J by oral gavage in a vehicle, e.g. PEG400/Ethanol/PBS (7/2/1). Each animal was sacrificed 4 h following administration and brain proteomes were prepared and analyzed according to previously established methods (See Niphakis, M. J., et al. (2011) ACS Chem. Neurosci. and Long, J. Z., et al. Nat. Chem. Biol. 5:37-44). Data from this assay is shown in Table 2 (% inhibition at 5 mg/kg).

[5] = molecular target: T3, FAAH; assay: Mouse brain proteomes from inhibitor treated mice (oral gavage, sacrificed 4 h after administration, ABPP analysis), FAAH; assay type: in vivo, mouse (C57Bl/6J); settings: 5 mg/kg oral gavage
Description: as §2, §3

[6] = molecular target: T2, ABHD6; assay: Mouse brain proteomes from inhibitor treated mice (oral gavage, sacrificed 4 h after administration, ABPP analysis), ABHD6; assay type: in vivo, mouse (C57Bl/6J); settings: 5 mg/kg oral gavage
Description: as §2, §3

T2 sequence (Q8R2Y0 whole entry): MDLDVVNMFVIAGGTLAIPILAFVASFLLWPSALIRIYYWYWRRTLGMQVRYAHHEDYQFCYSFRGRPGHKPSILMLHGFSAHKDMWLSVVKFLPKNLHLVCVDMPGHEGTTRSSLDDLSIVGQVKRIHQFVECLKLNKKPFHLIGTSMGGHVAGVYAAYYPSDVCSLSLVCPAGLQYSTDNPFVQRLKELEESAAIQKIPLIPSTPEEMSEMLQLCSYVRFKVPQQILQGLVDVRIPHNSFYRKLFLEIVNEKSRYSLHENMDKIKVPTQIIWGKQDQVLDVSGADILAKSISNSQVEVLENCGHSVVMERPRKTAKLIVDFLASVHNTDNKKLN
T1 sequence (O35678 whole entry): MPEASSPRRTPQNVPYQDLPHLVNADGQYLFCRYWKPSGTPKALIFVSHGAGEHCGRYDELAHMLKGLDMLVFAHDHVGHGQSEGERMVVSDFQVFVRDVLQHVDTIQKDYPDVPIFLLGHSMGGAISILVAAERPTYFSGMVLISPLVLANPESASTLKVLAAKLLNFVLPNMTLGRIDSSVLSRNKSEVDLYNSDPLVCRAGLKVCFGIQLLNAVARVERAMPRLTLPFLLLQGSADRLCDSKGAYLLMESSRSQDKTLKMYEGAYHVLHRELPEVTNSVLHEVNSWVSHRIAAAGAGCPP
T3 sequence (O08914 whole entry): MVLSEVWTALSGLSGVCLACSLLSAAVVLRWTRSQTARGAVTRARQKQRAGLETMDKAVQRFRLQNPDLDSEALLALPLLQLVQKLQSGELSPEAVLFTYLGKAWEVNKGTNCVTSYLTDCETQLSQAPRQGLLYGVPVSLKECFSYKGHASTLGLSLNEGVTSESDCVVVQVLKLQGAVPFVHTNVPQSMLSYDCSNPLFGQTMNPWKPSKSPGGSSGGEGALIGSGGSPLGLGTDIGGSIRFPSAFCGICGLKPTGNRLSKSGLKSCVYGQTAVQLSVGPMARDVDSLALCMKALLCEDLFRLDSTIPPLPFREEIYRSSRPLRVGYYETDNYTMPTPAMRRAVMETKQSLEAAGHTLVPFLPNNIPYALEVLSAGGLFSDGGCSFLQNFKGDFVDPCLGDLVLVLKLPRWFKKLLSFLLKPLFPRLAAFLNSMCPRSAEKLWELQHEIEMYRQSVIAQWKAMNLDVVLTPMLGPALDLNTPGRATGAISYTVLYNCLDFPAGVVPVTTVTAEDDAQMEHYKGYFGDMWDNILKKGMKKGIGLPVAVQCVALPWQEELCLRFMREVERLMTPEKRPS

O=C(OC(C(F)(F)F)C(F)(F)F)N1CCC2(CCN(Cc3ccc(Cl)cc3N3CCOCC3)C2)CC1 [Example 21, 1,1,1,3,3,3-Hexafluoropropan-2-yl 2-(4-chloro-2-morpholinobenzyl)-2,8-diazaspiro[4.5]decane-8-carboxylate]
inhibition at 1 µM [1]: > 75% | IC50 [1]: < 100 nM | inhibition at 1 µM [2]: ≥ 75% | IC50 [2]: 100 to 1000 nM | inhibition at 1 µM [3]: < 25% | IC50 [3]: > 1000 nM | MAGL % Inh 5 mg/kg (mouse) [4]: ### (### is ≥75%) | FAAH % Inh 5 mg/kg (mouse) [5]: # (# is <25%) | ABHD6 % Inh 5 mg/kg (mouse) [6]: ## (## is equal to or greater than 25% but less than 75%)

O=C(OC(C(F)(F)F)C(F)(F)F)N1CCC2(CCN(Cc3ccc(C(F)(F)F)cc3N3CCOCC3)C2)CC1 [Example 22, 1,1,1,3,3,3-Hexafluoropropan-2-yl 2-(2-morpholino-4-(trifluoromethyl)benzyl)-2,8-diazaspiro[4.5]decane-8-carboxylate]
inhibition at 1 µM [1]: > 75% | IC50 [1]: < 100 nM | inhibition at 1 µM [2]: ≥ 75% | IC50 [2]: 100 to 1000 nM | inhibition at 1 µM [3]: < 25% | IC50 [3]: > 1000 nM | MAGL % Inh 5 mg/kg (mouse) [4]: ### (### is ≥75%) | FAAH % Inh 5 mg/kg (mouse) [5]: # (# is <25%) | ABHD6 % Inh 5 mg/kg (mouse) [6]: # (# is <25%)

O=C(OC(C(F)(F)F)C(F)(F)F)N1CCC2(CCN(Cc3ccc(C(F)(F)F)cc3N3CCCCC3)C2)CC1 [Example 23, 1,1,1,3,3,3-Hexafluoropropan-2-yl 2-(2-(piperidin-1-yl)-4-(trifluoromethyl)benzyl)-2,8-diazaspiro[4.5]decane-8-carboxylate]
inhibition at 1 µM [1]: > 75% | IC50 [1]: < 100 nM | inhibition at 1 µM [2]: < 25% | IC50 [2]: > 1000 nM | inhibition at 1 µM [3]: < 25% | IC50 [3]: > 1000 nM | MAGL % Inh 5 mg/kg (mouse) [4]: ## (## is equal to or greater than 25% but less than 75%) | FAAH % Inh 5 mg/kg (mouse) [5]: # (# is <25%) | ABHD6 % Inh 5 mg/kg (mouse) [6]: # (# is <25%)

O=C(OC(C(F)(F)F)C(F)(F)F)N1CCC2(CCN(Cc3ccc(Cl)cc3N3CCCCC3)C2)CC1 [Example 24, 1,1,1,3,3,3-Hexafluoropropan-2-yl 2-(4-chloro-2-(piperidin-1-yl)benzyl)-2,8-diazaspiro[4.5]decane-8-carboxylate]
inhibition at 1 µM [1]: > 75% | IC50 [1]: < 100 nM | inhibition at 1 µM [2]: < 25% | IC50 [2]: > 1000 nM | inhibition at 1 µM [3]: < 25% | IC50 [3]: > 1000 nM | MAGL % Inh 5 mg/kg (mouse) [4]: ### (### is ≥75%) | FAAH % Inh 5 mg/kg (mouse) [5]: # (# is <25%) | ABHD6 % Inh 5 mg/kg (mouse) [6]: # (# is <25%)

O=C(OC(C(F)(F)F)C(F)(F)F)N1CCC2(CCN(Cc3ccc(Cl)cc3N3CC4COCC4C3)C2)CC1 (stereo not drawn) [Example 25, 1,1,1,3,3,3-Hexafluoropropan-2-yl 2-(4-chloro-2-(tetrahydro-1H-furo[3,4-c]pyrrol-5(3H)-yl)benzyl)-2,8-diazaspiro[4.5]decane-8-carboxylate]
inhibition at 1 µM [1]: > 75% | IC50 [1]: < 100 nM | inhibition at 1 µM [2]: ≥ 75% | IC50 [2]: 100 to 1000 nM | inhibition at 1 µM [3]: < 25% | IC50 [3]: > 1000 nM | MAGL % Inh 5 mg/kg (mouse) [4]: ## (## is equal to or greater than 25% but less than 75%) | FAAH % Inh 5 mg/kg (mouse) [5]: # (# is <25%) | ABHD6 % Inh 5 mg/kg (mouse) [6]: # (# is <25%)

O=C(OC(C(F)(F)F)C(F)(F)F)N1CCC2(CCN(Cc3ccc(C(F)(F)F)cc3N3CC4COCC4C3)C2)CC1 (stereo not drawn) [Example 26, 1,1,1,3,3,3-Hexafluoropropan-2-yl 2-(2-(tetrahydro-1H-furo[3,4-c]pyrrol-5(3H)-yl)-4-(trifluoromethyl)benzyl)-2,8-diazaspiro[4.5]decane-8-carboxylate]
inhibition at 1 µM [1]: > 75% | IC50 [1]: < 100 nM | inhibition at 1 µM [2]: ≥ 75% | IC50 [2]: 100 to 1000 nM | inhibition at 1 µM [3]: < 25% | IC50 [3]: > 1000 nM | MAGL % Inh 5 mg/kg (mouse) [4]: ## (## is equal to or greater than 25% but less than 75%) | FAAH % Inh 5 mg/kg (mouse) [5]: # (# is <25%) | ABHD6 % Inh 5 mg/kg (mouse) [6]: # (# is <25%)

O=C(OC(C(F)(F)F)C(F)(F)F)N1CCC2(CCCN2Cc2cccc(OCCF)c2)CC1 [Example 27, 1,1,1,3,3,3-Hexafluoropropan-2-yl 1-(3-(2-fluoroethoxy)benzyl)-1,8-diazaspiro[4.5]decane-8-carboxylate]
IC50 [1]: 100 to 1000 nM | IC50 [2]: > 1000 nM | IC50 [3]: > 1000 nM | MAGL % Inh 5 mg/kg (mouse) [4]: ### (### is ≥75%) | FAAH % Inh 5 mg/kg (mouse) [5]: # (# is <25%) | ABHD6 % Inh 5 mg/kg (mouse) [6]: # (# is <25%)

O=C(OC(C(F)(F)F)C(F)(F)F)N1CCC2(CCCN2Cc2ccc(Cl)c(OCCF)c2)CC1 [Example 28, 1,1,1,3,3,3-Hexafluoropropan-2-yl 1-(4-chloro-3-(2-fluoroethoxy)benzyl)-1,8-diazaspiro[4.5]decane-8-carboxylate]
IC50 [1]: < 100 nM | IC50 [2]: > 1000 nM | IC50 [3]: > 1000 nM | MAGL % Inh 5 mg/kg (mouse) [4]: ### (### is ≥75%) | FAAH % Inh 5 mg/kg (mouse) [5]: # (# is <25%) | ABHD6 % Inh 5 mg/kg (mouse) [6]: # (# is <25%)

O=C(OC(C(F)(F)F)C(F)(F)F)N1CCC2(CCCN2Cc2ccc(F)c(OCCF)c2)CC1 [Example 29, 1,1,1,3,3,3-Hexafluoropropan-2-yl 1-(4-fluoro-3-(2-fluoroethoxy)benzyl)-1,8-diazaspiro[4.5]decane-8-carboxylate]
inhibition at 1 µM [1]: > 75% | IC50 [1]: < 100 nM | inhibition at 1 µM [2]: ≥ 75% | IC50 [2]: > 1000 nM | inhibition at 1 µM [3]: < 25% | IC50 [3]: > 1000 nM | MAGL % Inh 5 mg/kg (mouse) [4]: ### (### is ≥75%) | FAAH % Inh 5 mg/kg (mouse) [5]: ## (## is equal to or greater than 25% but less than 75%) | ABHD6 % Inh 5 mg/kg (mouse) [6]: ### (### is ≥75%)

O=C(OC(C(F)(F)F)C(F)(F)F)N1CCC2(CCCN2Cc2ccc(Cl)cc2OCCF)CC1 [Example 30, 1,1,1,3,3,3-Hexafluoropropan-2-yl 1-(4-chloro-2-(2-fluoroethoxy)benzyl)-1,8-diazaspiro[4.5]decane-8-carboxylate]
inhibition at 1 µM [1]: > 75% | IC50 [1]: < 100 nM | inhibition at 1 µM [2]: < 25% | IC50 [2]: > 1000 nM | inhibition at 1 µM [3]: < 25% | IC50 [3]: > 1000 nM | MAGL % Inh 5 mg/kg (mouse) [4]: ### (### is ≥75%) | FAAH % Inh 5 mg/kg (mouse) [5]: # (# is <25%) | ABHD6 % Inh 5 mg/kg (mouse) [6]: # (# is <25%)

O=C(OC(C(F)(F)F)C(F)(F)F)N1CCC2(CCCN2Cc2ccc(OCCF)cc2)CC1 [Example 31, 1,1,1,3,3,3-Hexafluoropropan-2-yl 1-(4-(2-fluoroethoxy)benzyl)-1,8-diazaspiro[4.5]decane-8-carboxylate]
inhibition at 1 µM [1]: > 75% | IC50 [1]: < 100 nM | inhibition at 1 µM [2]: < 25% | IC50 [2]: > 1000 nM | inhibition at 1 µM [3]: < 25% | IC50 [3]: > 1000 nM | MAGL % Inh 5 mg/kg (mouse) [4]: ### (### is ≥75%) | FAAH % Inh 5 mg/kg (mouse) [5]: # (# is <25%) | ABHD6 % Inh 5 mg/kg (mouse) [6]: ## (## is equal to or greater than 25% but less than 75%)

CCOc1cc(CN2CCCC23CCN(C(=O)OC(C(F)(F)F)C(F)(F)F)CC3)ccc1Cl [Example 32, 1,1,1,3,3,3-Hexafluoropropan-2-yl 1-(4-chloro-3-ethoxybenzyl)-1,8-diazaspiro[4.5]decane-8-carboxylate]
inhibition at 1 µM [1]: > 75% | IC50 [1]: < 100 nM | inhibition at 1 µM [2]: < 25% | IC50 [2]: > 1000 nM | inhibition at 1 µM [3]: < 25% | IC50 [3]: > 1000 nM | MAGL % Inh 5 mg/kg (mouse) [4]: ### (### is ≥75%) | FAAH % Inh 5 mg/kg (mouse) [5]: # (# is <25%) | ABHD6 % Inh 5 mg/kg (mouse) [6]: # (# is <25%)
